Where two headings read alike, the source gives them in different places.
Experiments:
Assay in all cases: Sensitivity test (agar dilution), clinical isolate
Assay type in all cases: cell-based, Pseudomonas aeruginosa
[1] = tested on: P. aeruginosa 15032
Method: (§1) In addition, the antibacterial activities were tested against strains which are comparatively less sensitive to β-lactam compounds, namely clinically isolated 13 strains of Acinetobacter calcoaceticus and Acinetobacter lwoffi, clinically isolated 11 strains of Serratia marcescens, clinically isolated 12 strains of Burkholderia cepacia, and clinically isolated 15 strains of Pseudomonas aeruginosa.
(§2) According to the standard method of Japan Chemotherapeutic Society (Chemotherapy, vol. […], p 76-79 (1981)) the test was carried out using the agar dilution method. After dissolving test samples in distilled water, agar medium containing the test samples was prepared in such a manner that the final concentration became twice serial dilution by pouring serially diluted combination drug solution or a single drug solution into agar medium. As agar medium was used Mueller Hinton Agar medium (MHA). Then, each strain was cultivated over night at 37° C. in an incubator and suspended in buffered saline solution with gelatin (BSG) in the concentration of about 10^6 CFU/ml. The suspension (about 5 μl) containing test strains was inoculated to the medium containing the test samples by Micro Planter.
(§3) Each drug was weighed, and dissolved in distilled water to give a test sample. When the drugs are used in combination, two kinds of solution containing each drug were mixed so as to be various ratio of concentration to give a mixed solution. When the sample is subjected to sensitivity test, this mixed solution was diluted by twice serial dilution method.
(§4) Furthermore, when the drug is solely used, each test sample was used as it is, and diluted by twice serial dilution method from the maximum concentration to the minimum concentration.

[2] = tested on: P. aeruginosa 15019
Method: as §1, §2, §3, §4

[3] = tested on: P. aeruginosa 12790
Method: as §1, §2, §3, §4

[4] = tested on: P. aeruginosa 15039
Method: as §1, §2, §3, §4

[5] = tested on: P. aeruginosa 13272
Method: as §1, §2, §3, §4

[6] = tested on: P. aeruginosa 12789
Method: as §1, §2, §3, §4

[7] = tested on: P. aeruginosa 15036
Method: as §1, §2, §3, §4

[8] = tested on: P. aeruginosa 13269
Method: as §1, §2, §3, §4

[9] = tested on: P. aeruginosa 15040
Method: as §1, §2, §3, §4

[10] = tested on: P. aeruginosa 13250
Method: as §1, §2, §3, §4

[11] = tested on: P. aeruginosa 13221
Method: as §1, §2, §3, §4

[12] = Pseudomonas aeruginosa, 15032, Concomitant (ME:SM = 1:1)
[13] = Pseudomonas aeruginosa, 15032, Concomitant (ME:SM = 1:2)
[14] = Pseudomonas aeruginosa, 15032, Concomitant (ME:SM = 1:4)
[15] = Pseudomonas aeruginosa, 15032, Concomitant (ME:SM = 2:1)
[16] = Pseudomonas aeruginosa, 15032, alone
[17] = Pseudomonas aeruginosa, 15019, Concomitant (ME:SM = 1:1)
[18] = Pseudomonas aeruginosa, 15019, Concomitant (ME:SM = 1:2)
[19] = Pseudomonas aeruginosa, 15019, Concomitant (ME:SM = 1:4)
[20] = Pseudomonas aeruginosa, 15019, Concomitant (ME:SM = 2:1)
[21] = Pseudomonas aeruginosa, 15019, alone
[22] = Pseudomonas aeruginosa, 12790, Concomitant (ME:SM = 1:1), read-out: MIC
[23] = Pseudomonas aeruginosa, 12790, Concomitant (ME:SM = 1:4), read-out: MIC
[24] = Pseudomonas aeruginosa, 12790, Concomitant (ME:SM = 2:1), read-out: MIC
[25] = Pseudomonas aeruginosa, 12790, alone, read-out: MIC
[26] = Pseudomonas aeruginosa, 15039, Concomitant (ME:SM = 1:1)
[27] = Pseudomonas aeruginosa, 15039, Concomitant (ME:SM = 1:2)
[28] = Pseudomonas aeruginosa, 15039, Concomitant (ME:SM = 1:4)
[29] = Pseudomonas aeruginosa, 15039, Concomitant (ME:SM = 2:1)
[30] = Pseudomonas aeruginosa, 15039, alone
[31] = Pseudomonas aeruginosa, 13272, Concomitant (ME:SM = 1:1)
[32] = Pseudomonas aeruginosa, 13272, Concomitant (ME:SM = 1:2)
[33] = Pseudomonas aeruginosa, 13272, Concomitant (ME:SM = 1:4)
[34] = Pseudomonas aeruginosa, 13272, Concomitant (ME:SM = 2:1)
[35] = Pseudomonas aeruginosa, 13272, alone
[36] = Pseudomonas aeruginosa, 12789, Concomitant (ME:SM = 1:1)
[37] = Pseudomonas aeruginosa, 12789, Concomitant (ME:SM = 1:2)
[38] = Pseudomonas aeruginosa, 12789, Concomitant (ME:SM = 1:4)
[39] = Pseudomonas aeruginosa, 12789, Concomitant (ME:SM = 2:1)
[40] = Pseudomonas aeruginosa, 12789, alone
[41] = Pseudomonas aeruginosa, 15036, Concomitant (ME:SM = 1:1)
[42] = Pseudomonas aeruginosa, 15036, Concomitant (ME:SM = 1:2)
[43] = Pseudomonas aeruginosa, 15036, Concomitant (ME:SM = 1:4)
[44] = Pseudomonas aeruginosa, 15036, Concomitant (ME:SM = 2:1)
[45] = Pseudomonas aeruginosa, 15036, alone
[46] = Pseudomonas aeruginosa, 13269, Concomitant (ME:SM = 1:1)
[47] = Pseudomonas aeruginosa, 13269, Concomitant (ME:SM = 1:2)
[48] = Pseudomonas aeruginosa, 13269, Concomitant (ME:SM = 1:4)
[49] = Pseudomonas aeruginosa, 13269, Concomitant (ME:SM = 2:1)
[50] = Pseudomonas aeruginosa, 13269, alone
[51] = Pseudomonas aeruginosa, 15040, Concomitant (ME:SM = 1:1)
[52] = Pseudomonas aeruginosa, 15040, Concomitant (ME:SM = 1:2)
[53] = Pseudomonas aeruginosa, 15040, Concomitant (ME:SM = 1:4)
[54] = Pseudomonas aeruginosa, 15040, Concomitant (ME:SM = 2:1)
[55] = Pseudomonas aeruginosa, 15040, alone
[56] = Pseudomonas aeruginosa, 13250, Concomitant (ME:SM = 1:1)
[57] = Pseudomonas aeruginosa, 13250, Concomitant (ME:SM = 1:2)
[58] = Pseudomonas aeruginosa, 13250, Concomitant (ME:SM = 1:4)
[59] = Pseudomonas aeruginosa, 13250, Concomitant (ME:SM = 2:1)
[60] = Pseudomonas aeruginosa, 13250, alone
[61] = Pseudomonas aeruginosa, 13221, Concomitant (ME:SM = 1:4), read-out: MIC
[62] = Pseudomonas aeruginosa, 13221, Concomitant (ME:SM = 2:1), read-out: MIC

C[C@@H](O)[C@H]1C(=O)N2C(C(=O)O)=C(S[C@@H]3CN[C@H](C(=O)N(C)C)C3)[C@H](C)[C@H]12 [MEPM, meropenem]
MIC [1, 12]: 2 µg/mL | MIC [1, 13]: 1 µg/mL | MIC [1, 14]: 2 µg/mL | MIC [1, 15]: 2 µg/mL | MIC [1, 16]: 2 µg/mL | MIC [2, 17]: 4 µg/mL | MIC [2, 18]: 4 µg/mL | MIC [2, 19]: 2 µg/mL | MIC [2, 20]: 4 µg/mL | MIC [2, 21]: 4 µg/mL | MIC ([3]; Pseudomonas aeruginosa, 12790): 0.125 µg/mL | MIC [3, 22]: 0.063 µg/mL | MIC [3, 23]: 0.063 µg/mL | MIC [3, 24]: 0.031 µg/mL | MIC [3, 25]: 0.063 µg/mL | MIC [4, 26]: 8 µg/mL | MIC [4, 27]: 8 µg/mL | MIC [4, 28]: 4 µg/mL | MIC [4, 29]: 8 µg/mL | MIC [4, 30]: 8 µg/mL | MIC [5, 31]: 4 µg/mL | MIC [5, 32]: 2 µg/mL | MIC [5, 33]: 2 µg/mL | MIC [5, 34]: 4 µg/mL | MIC [5, 35]: 4 µg/mL | MIC [6, 36]: 0.5 µg/mL | MIC [6, 37]: 0.5 µg/mL | MIC [6, 38]: 0.5 µg/mL | MIC [6, 39]: 0.5 µg/mL | MIC [6, 40]: 0.5 µg/mL | MIC [7, 41]: 2 µg/mL | MIC [7, 42]: 1 µg/mL | MIC [7, 43]: 2 µg/mL | MIC [7, 44]: 2 µg/mL | MIC [7, 45]: 2 µg/mL | MIC [8, 46]: 4 µg/mL | MIC [8, 47]: 2 µg/mL | MIC [8, 48]: 2 µg/mL | MIC [8, 49]: 4 µg/mL | MIC [8, 50]: 4 µg/mL | MIC [9, 51]: 4 µg/mL | MIC [9, 52]: 2 µg/mL | MIC [9, 53]: 2 µg/mL | MIC [9, 54]: 4 µg/mL | MIC [9, 55]: 4 µg/mL | MIC [10, 56]: 0.5 µg/mL | MIC [10, 57]: 0.25 µg/mL | MIC [10, 58]: 0.5 µg/mL | MIC [10, 59]: 0.5 µg/mL | MIC [10, 60]: 0.5 µg/mL | MIC ([11]; Concomitant (ME:SM = 1:1)): 0.125 µg/mL | MIC ([11]; Concomitant (ME:SM = 1:2)): 0.125 µg/mL | MIC ([11]; Pseudomonas aeruginosa, 13221): 0.125 µg/mL | MIC [11, 61]: 0.063 µg/mL | MIC [11, 62]: 0.063 µg/mL

C[C@H]1C=C(c2csc(SC3=C(C(=O)O)N4C(=O)[C@H]([C@@H](C)O)[C@H]4[C@H]3C)n2)CN1 [SM, (4R,5S,6S)-6-[(1R)-1-Hydroxyethyl]-4-methyl-3-({4-[(5S)-5-methyl-2,5-dihydro-1H-pyrrol-3-yl]-1,3-thiazol-2-yl}sulfanyl)-7-oxo-1-azabicyclo[3.2.0]hept-2-ene-2-carboxylic acid]
MIC [1, 12]: 2 µg/mL | MIC [1, 13]: 2 µg/mL | MIC [1, 14]: 8 µg/mL | MIC [1, 15]: 1 µg/mL | MIC [1, 16]: 8 µg/mL | MIC [2, 17]: 4 µg/mL | MIC [2, 18]: 8 µg/mL | MIC [2, 19]: 8 µg/mL | MIC [2, 20]: 2 µg/mL | MIC [2, 21]: 16 µg/mL | MIC [3, 22]: 0.063 µg/mL | MIC ([3]; Pseudomonas aeruginosa, 12790, Concomitant (ME:SM = 1:2), read-out: MIC): 0.25 µg/mL | MIC [3, 23]: 0.25 µg/mL | MIC [3, 24]: 0.016 µg/mL | MIC [3, 25]: 4 µg/mL | MIC [4, 26]: 8 µg/mL | MIC [4, 27]: 16 µg/mL | MIC [4, 28]: 16 µg/mL | MIC [4, 29]: 4 µg/mL | MIC [4, 30]: 32 µg/mL | MIC [5, 31]: 4 µg/mL | MIC [5, 32]: 4 µg/mL | MIC [5, 33]: 8 µg/mL | MIC [5, 34]: 2 µg/mL | MIC [5, 35]: 16 µg/mL | MIC [6, 36]: 0.5 µg/mL | MIC [6, 37]: 1 µg/mL | MIC [6, 38]: 2 µg/mL | MIC [6, 39]: 0.25 µg/mL | MIC [6, 40]: 8 µg/mL | MIC [7, 41]: 2 µg/mL | MIC [7, 42]: 2 µg/mL | MIC [7, 43]: 8 µg/mL | MIC [7, 44]: 1 µg/mL | MIC [7, 45]: 8 µg/mL | MIC [8, 46]: 4 µg/mL | MIC [8, 47]: 4 µg/mL | MIC [8, 48]: 8 µg/mL | MIC [8, 49]: 2 µg/mL | MIC [8, 50]: 16 µg/mL | MIC [9, 51]: 4 µg/mL | MIC [9, 52]: 4 µg/mL | MIC [9, 53]: 8 µg/mL | MIC [9, 54]: 2 µg/mL | MIC [9, 55]: 16 µg/mL | MIC [10, 56]: 0.5 µg/mL | MIC [10, 57]: 0.5 µg/mL | MIC [10, 58]: 2 µg/mL | MIC [10, 59]: 0.25 µg/mL | MIC [10, 60]: 8 µg/mL | MIC ([11]; Pseudomonas aeruginosa, 13221, Concomitant (ME:SM = 1:1), read-out: MIC): 0.125 µg/mL | MIC ([11]; Pseudomonas aeruginosa, 13221, Concomitant (ME:SM = 1:2), read-out: MIC): 0.25 µg/mL | MIC [11, 61]: 0.25 µg/mL | MIC [11, 62]: 0.031 µg/mL | MIC ([11]; Pseudomonas aeruginosa, 13221, alone, read-out: MIC): 16 µg/mL

Reference: patent US20090018111A1, “Novel Antimicrobial Medicament” (priority 2004, published 2009)
